The text below walks through data of patent US20240208912A1 (Mirati Therapeutics, Inc., priority 2021, published 2024).

Each structure is given as a SMILES string. Like-named read-outs stand apart in the source and are kept apart here.

For assay [1], the system named is PRMT5-dependent Symmetric Di-methyl Arginine signal in HCT116 homozygous MTAP Knockout cells. Put plainly: SYM11 In-Cell Western in HCT116 homozygous MTAP knockout cells. Type of assay: cell-based. The method, then: HCT116 cells were genetically engineered to knock out the function of both MTAP alleles using a CRISPR/Cas9 system and an sgRNA targeting the MTAP gene. Following Cas9/MTAP sgRNA transduction, clones were screened to confirm that each allele of the MTAP gene had been inactivated (i.e., homozygous MTAP knock out) creating an MTAP-deficient cell.
Control samples were analyzed in parallel.
Briefly, on Day 0, 2,000 HCT116 parental or HCT116 homozygous MTAP knockout cells were seeded in 96 well plates in McCoy's 5A supplemented with 10% fetal bovine serum and pen/strep and the cells were incubated overnight at 37° C. plus 5% CO2. The following day, cells were treated with DMSO vehicle control or a dose response of PRMT5 inhibitors, and incubated at 37° C. plus 5% CO^2 for four days.
After 4 days of treatment, the cells were fixed by adding 50 μl of 4% paraformaldehyde solution to each well and the cells were incubated for 20 min at room temperature. The paraformaldehyde solution was removed, 150 μl of ice-cold methanol was added and the plate was placed −20° C. for 10 minutes. The methanol was removed, 150 μl of Odyssey Blocking buffer+0.05% Tween20 was added and the plate was incubated at room temperature with shaking for one hour.
The primary SYM11 antibody solution was removed by aspiration and the wells were washed three consecutive times with phosphate buffered saline containing 0.1% Tween-20 (PBST).
The secondary antibody solution was removed by aspiration and the wells were washed three consecutive times with PBST.
The SYM11 signal and the DRAQ5 signal were quantified using a Li-Cor Odyssey machine reading at […], respectively. The SYM11/DRAQ5 ratio was used to calculate the inhibition of Symmetric Dimethyl Arginine as percent of DMSO control.

Assay [2] concerns HCT116 homozygous MTAP knockout cells. Put plainly: Proliferation assay (CellTiter-Glo, 10 days) in HCT116 homozygous MTAP knockout cells. The assay is classed as cell-based. Particulars: CellTiter-Glo after 10 days of treatment, read-out: Proliferation IC50 (nM) HCT116 MTAP_KO. Put shortly: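 MTAP-null HCT116 clone made by CRISPR/Cas9 knockout of both alleles, tested beside parental cells. Cells dosed the day after seeding, split 1:10 on day 6 into fresh medium with the same compound level, and read on day 11 by CellTiter-Glo. IC50 taken after 10 days of exposure.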
For orientation: In ATP-based viability assays light output follows the ATP content of the culture.

Assay [3] addresses T1, PRMT5/MEP50 complex (Homo sapiens, UniProt O14744).
T1 construct: purchased Reaction Biology Corporation
Put plainly: PRMT5:MEP50 HotSpot Assay (full-length histone H2A substrate, plus and minus MTA). The assay is classed as biochemical. Particulars: IC50 + 2 μM MTA, in the presence of 2 μM MTA. The essentials: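 Radiometric HotSpot format using recombinant full-length histone H2A as substrate, run with and without MTA. Reactions were stopped and spotted onto filter paper. Tritiated H2A was quantified by scintillation counting.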

[4] abbreviates: 4 days of treatment, SYM11/DRAQ5 ratio as percent of DMSO control, read-out: In-cell-Western (SYM11) IC50 (nM) HCT116 MTAP_KO.
Where [5] appears, read: Homo sapiens, HCT-116, 96 h, 4 days of treatment, SYM11/DRAQ5 ratio as percent of DMSO control, read-out: In-cell-Western (SYM11) IC50 (nM) HCT116 MTAP_KO.
Setting [6] is: read-out: In-cell-Western (SYM11) IC50 (nM) HCT116 MTAP_KO, 4 days of treatment, SYM11/DRAQ5 ratio as percent of DMSO control.

T1 sequence (O14744 2-637 limits assumed): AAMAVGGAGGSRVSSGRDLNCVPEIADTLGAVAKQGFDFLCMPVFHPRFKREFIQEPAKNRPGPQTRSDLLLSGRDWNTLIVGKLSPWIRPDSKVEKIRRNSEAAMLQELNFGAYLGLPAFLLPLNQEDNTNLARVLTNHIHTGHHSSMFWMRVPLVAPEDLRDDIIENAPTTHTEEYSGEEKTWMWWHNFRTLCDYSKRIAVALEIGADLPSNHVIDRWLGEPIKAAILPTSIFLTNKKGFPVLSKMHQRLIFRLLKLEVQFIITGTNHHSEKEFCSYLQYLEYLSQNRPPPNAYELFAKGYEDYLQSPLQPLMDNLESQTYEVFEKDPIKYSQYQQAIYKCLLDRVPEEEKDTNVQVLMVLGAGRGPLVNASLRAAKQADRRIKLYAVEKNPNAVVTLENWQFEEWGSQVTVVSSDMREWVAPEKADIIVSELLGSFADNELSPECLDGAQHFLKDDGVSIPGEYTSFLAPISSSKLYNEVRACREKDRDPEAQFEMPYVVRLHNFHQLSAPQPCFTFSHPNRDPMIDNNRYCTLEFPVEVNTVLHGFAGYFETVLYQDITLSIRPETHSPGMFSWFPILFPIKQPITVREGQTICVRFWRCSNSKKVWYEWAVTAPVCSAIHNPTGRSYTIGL
T1 sequence (Q9BQA1 2-342 partner limits assumed): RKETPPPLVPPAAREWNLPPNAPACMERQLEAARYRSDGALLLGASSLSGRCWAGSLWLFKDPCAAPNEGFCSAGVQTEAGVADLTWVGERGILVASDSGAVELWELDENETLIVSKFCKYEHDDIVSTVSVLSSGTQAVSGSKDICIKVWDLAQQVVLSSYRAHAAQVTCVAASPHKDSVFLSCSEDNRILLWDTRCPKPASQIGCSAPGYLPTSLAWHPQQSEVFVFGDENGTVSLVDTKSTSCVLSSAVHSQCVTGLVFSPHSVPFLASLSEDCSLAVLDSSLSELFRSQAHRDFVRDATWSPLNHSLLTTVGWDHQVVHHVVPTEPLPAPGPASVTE

Consider `Cc1cc(-c2cnn(C)c2-c2c(F)c(Cl)c3ccccc3c2C#N)cc2c(CN)n[nH]c(=O)c12` (atropisomer, axis not shown; (M)) [Example 16-18, (M)-2-[4-[4-(aminomethyl)-8-methyl-1-oxo-2H-phthalazin-6-yl]-2-methyl-pyrazol-3-yl]-4-chloro-3-fluoro-naphthalene-1-carbonitrile], for which the values for the IC50 in assay [1] (setting [4]) and in assay [2] were 13 nM and 19 nM, respectively.
On to `Cc1c(F)c(-c2c(-c3cc(Cl)c4c(=O)[nH]nc(CN)c4c3)cnn2C)c(C#N)c2ncc(Cl)cc12` (atropisomer, axis not shown; (M)) [Example 16-98, (M)-7-(4-(4-(aminomethyl)-8-chloro-1-oxo-1,2-dihydrophthalazin-6-yl)-1-methyl-1H-pyrazol-5-yl)-3-chloro-6-fluoro-5-methylquinoline-8-carbonitrile], for which the IC50 in assay [1] (setting [5]) came out at 25 nM; in assay [3], 552 nM.
As to `N#Cc1c(OC2CC2)cc(Cl)c(F)c1-c1c(-c2ccc3c(=O)[nH]nc(CN)c3c2)cnn1C(F)(F)F` (atropisomer, axis not shown; (M)) [Example 16-120, (M)-2-(4-(4-(aminomethyl)-1-oxo-1,2-dihydrophthalazin-6-yl)-1-(trifluoromethyl)-1H-pyrazol-5-yl)-4-chloro-6-cyclopropoxy-3-fluorobenzonitrile], the results for the IC50 in assay [1] (setting [4]) and in assay [3] were 79 nM and 257 nM, respectively.
Consider `Cc1cc(-c2cnn(C)c2-c2c(F)c(Cl)c3ccccc3c2C#N)cc2c(CN)n[nH]c(=O)c12` (atropisomer, axis not shown; (P)) [Example 16-17, (P)-2-[4-[4-(aminomethyl)-8-methyl-1-oxo-2H-phthalazin-6-yl]-2-methyl-pyrazol-3-yl]-4-chloro-3-fluoro-naphthalene-1-carbonitrile], for which the IC50 was found to be 129 nM in assay [1] (setting [4]) and 285 nM in assay [2].
For the compound `N#Cc1c(OC2CC2)cc(Cl)c(F)c1-c1c(-c2ccc3c(=O)[nH]nc(CN)c3c2)cnn1C(F)(F)F` (atropisomer, axis not shown; (P)) [Example 16-119, (P)-2-(4-(4-(aminomethyl)-1-oxo-1,2-dihydrophthalazin-6-yl)-1-(trifluoromethyl)-1H-pyrazol-5-yl)-4-chloro-6-cyclopropoxy-3-fluorobenzonitrile], the IC50 in assay [1] (setting [4]) was 1000 nM; in assay [3] it was 489 nM.
Turning to `Cc1c(F)c(-c2c(-c3cc(C)c4c(=O)[nH]nc(CN)c4c3)cnn2C)c(C#N)c2ncc(Cl)cc12` (single isomer, unassigned) [Example 16-96, (M)-7-(4-(4-(aminomethyl)-8-methyl-1-oxo-1,2-dihydrophthalazin-6-yl)-1-methyl-1H-pyrazol-5-yl)-3-chloro-6-fluoro-5-methylquinoline-8-carbonitrile], the IC50 in assay [1] (setting [5]) came out at 22 nM; in assay [3] it was 5940 nM.
On to `Cc1ccc(-c2c(-c3ccc4c(=O)[nH]nc(CN)c4c3)cnn2C)c(C#N)c1` [Example 4-106, 2-(4-(4-(aminomethyl)-1-oxo-1,2-dihydrophthalazin-6-yl)-1-methyl-1H-pyrazol-5-yl)-5-methylbenzonitrile], for which the IC50 in assay [1] (setting [5]) was found to be 26 nM.
In the case of `Cn1ncc(-c2ccc3c(=O)[nH]nc(CN)c3c2)c1-c1c(F)cc2ccccc2c1C#N` [Example 4-203, 2-(4-(4-(aminomethyl)-1-oxo-1,2-dibydrophthalazin-6-yl)-1-methyl-1H-pyrazol-5-yl)-3-fluoro-1-naphthonitrile], in assay [1] (setting [4]), the IC50 was 2 nM.
Turning to `Cn1ncc(-c2ccc3c(=O)[nH]nc(CN)c3c2)c1-c1cc2ccccn2c1C#N` [Example 4-256, 2-[4-[4-(aminomethyl)-1-oxo-2H-phthalazin-6-yl]-2-methyl-pyrazol-3-yl]indolizine-3-carbonitrile], the IC50 in assay [1] (setting [5]) was determined as 1000 nM.
Consider `Cn1ncc(-c2ccc3c(=O)[nH]nc(CN)c3c2)c1-c1ccc2ccc(Cl)cc2c1C#N` [Example 4-258, 2-[4-[4-(aminomethyl)-1-oxo-2H-phthalazin-6-yl]-2-methyl-pyrazol-3-yl]-7-chloro-naphthalene-1-carbonitrile], for which the IC50 in assay [1] (setting [5]) worked out at 28 nM; in assay [2] (Homo sapiens, HCT-116, 240 h) it was 89 nM.
The matching figures for `Cn1ncc(-c2ccc3c(=O)[nH]nc(CN)c3c2)c1-c1c(Cl)cc2ccccc2c1Cl` [Example 4-259, 4-(aminomethyl)-6-[5-(1,3-dichloro-2-naphthyl)-1-methyl-pyrazol-4-yl]-2H-phthalazin-1-one]: 97 nM and 837 nM.
The matching figures for `Cn1ncc(-c2ccc3c(=O)[nH]nc(CN)c3c2)c1-c1ccc2ncc(F)cc2c1C#N` [Example 4-264, 6-[4-[4-(aminomethyl)-1-oxo-2H-phthalazin-6-yl]-2-methyl-pyrazol-3-yl]-3-fluoro-quinoline-5-carbonitrile]: 23 nM and 83 nM.
The like results for `Cn1ncc(-c2ccc3c(=O)[nH]nc(CN)c3c2)c1-c1cccc2cccc(C#N)c12` [Example 4-265, 8-[4-[4-(aminomethyl)-1-oxo-2H-phthalazin-6-yl]-2-methyl-pyrazol-3-yl]naphthalene-1-carbonitrile] were, in that order, 1000 nM and 1650 nM.
Regarding `Cn1ncc(-c2cc(Cl)c3c(=O)[nH]nc(CN)c3c2)c1-c1c(F)c(Cl)cc(OC2CC2)c1C#N` [Example 10-25, 2-[4-[4-(aminomethyl)-8-chloro-1-oxo-2H-phthalazin-6-yl]-2-methyl-pyrazol-3-yl]-4-chloro-6-(cyclopropoxy)-3-fluoro-benzonitrile], the IC50 in assay [1] (setting [5]) came to 8 nM; in assay [2] (Homo sapiens, HCT-116, 240 h) it was 30 nM.
The matching figures for `Cc1cc(-c2cnn(C)c2-c2c(C#N)cc3ccccc3c2Cl)cc2c(CN)n[nH]c(=O)c12` [Example 10-26, 3-[4-[4-(aminomethyl)-8-methyl-1-oxo-2H-phthalazin-6-yl]-2-methyl-pyrazol-3-yl]-4-chloro-naphthalene-2-carbonitrile]: 35 nM and 83 nM.
Regarding `Cn1ncc(-c2ccc3c(=O)[nH]nc(CN)c3c2)c1-c1c(F)c(Cl)cc(OC2CC2)c1C#N` [Example 16-7, 2-(4-(4-(aminomethyl)-1-oxo-1,2-dihydrophthalazin-6-yl)-1-methyl-1H-pyrazol-5-yl)-4-chloro-6-cyclopropoxy-3-fluorobenzonitrile], in assay [1] (setting [6]), the IC50 turned out to be 1000 nM.
Same read-out and setting: with `Cn1ncc(-c2ccc3c(=O)[nH]nc(CN)c3c2)c1-c1c(F)c(Cl)cc(OC2CC2)c1C#N` [Example 16-8, 2-(4-(4-(aminomethyl)-1-oxo-1,2-dihydrophthalazin-6-yl)-1-methyl-1H-pyrazol-5-yl)-4-chloro-6-cyclopropoxy-3-fluorobenzonitrile] the figure was 0.8 nM.
Consider `CCn1ncc(-c2ccc3c(=O)[nH]nc(CN)c3c2)c1-c1sc2ccccc2c1C#N` [Example 19-1, 2-[4-[4-(aminomethyl)-1-oxo-2H-phthalazin-6-yl]-2-ethyl-pyrazol-3-yl]benzothiophene-3-carbonitrile], for which the IC50 came to 146 nM in assay [3] and 587 nM in assay [2] (Homo sapiens, HCT-116, 240 h).
The like results for `CC(C)n1ncc(-c2ccc3c(=O)[nH]nc(CN)c3c2)c1-c1sc2ccccc2c1C#N` [Example 19-2, 2-(4-(4-(aminomethyl)-1-oxo-1,2-dihydrophthalazin-6-yl)-1-isopropyl-1H-pyrazol-5-yl)benzo[b]thiophene-3-carbonitrile] were, in that order, 1650 nM and 4220 nM.
The matching figures for `N#Cc1c(-c2c(-c3ccc4c(=O)[nH]nc(CN)c4c3)cnn2C(F)F)sc2ccccc12` [Example 19-3, 2-(4-(4-(aminomethyl)-1-oxo-1,2-dihydrophthalazin-6-yl)-1-(difluoromethyl)-1H-pyrazol-5-yl)benzo[b]thiophene-3-carbonitrile]: 308 nM and 149 nM.
The matching figures for `N#Cc1c(-c2c(-c3ccc4c(=O)[nH]nc(CN)c4c3)cnn2C(F)(F)F)sc2ccccc12` [Example 19-4, 2-(4-(4-(aminomethyl)-1-oxo-1,2-dihydrophthalazin-6-yl)-1-(trifluoromethyl)-1H-pyrazol-5-yl)benzo[b]thiophene-3-carbonitrile]: 647 nM and 1030 nM.
